Assay results published in patent US9789096B2, “Methods and compositions for selective and targeted cancer therapy” (Board of Regents of the University of Texas System, priority 2013, dated 2017).
Like-named read-outs stand apart in the source and are kept apart here.

Tests used:
Format in all cases: cell-based, human
H2073 = assay: Cell viability dose-response, H2073; conditions: Homo sapiens, NCI-H2073, 12-point dose-response starting at 50 micromolar, 3-fold increments, in duplicate; read-out: toxicity data, H2073
Procedure: (§1) FIG. 6A. […] Cell viability is plotted vs. compound concentration. Compound was added to cells plated at 15% confluence in 96-well plates in RPMI-1640 media supplemented with 5% Fetal Bovine Serum and 2 mM L-Glutamine. After 4 days of incubation, ATP levels were measured using Cell Titer Glo (Promega). Data are presented as the average of 2 replicates ±SEM.
(§2) Selectivity may be measured by the half maximal inhibitory concentration (IC50), which, as used herein, is a measure of the effectiveness of a compound in killing cells. This quantitative measure indicates how much of a particular compound is needed to kill a particular cell population by half (e.g., as indicated by the amount of ATP). […] The IC50 can be determined by constructing a dose-response curve. The lower the IC50, the higher the potency, and the greater the difference between IC50 values for different cell lines (e.g., sensitive lines vs. insensitive lines, and sensitive lines vs. normal lines) the greater the selectivity. […]
(§3) With this information, we synthesized and tested a series of small molecules derived in conception from the oxalamide and chromone scaffold including N-acyl ureas, as shown in Tables 6-8. Each compound was tested in a 12-point dose-response study starting at 50 micromolar and decreasing in 3-fold increments to sub-nanomolar concentrations, in duplicate. Additionally, one or more additional cell line was tested in the same way.

H2122 = assay: Cell viability dose-response, H2122; conditions: Homo sapiens; for AC50: NCI-H2122, Table 8, 12-point dose-response starting at 50 micromolar
How it was run: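 Viability read as total ATP (Cell Titer Glo) following 4 days' compound exposure, with IC50 derived from dose-response curves. Duplicate 12-point series, top concentration 50 micromolar with 3-fold steps, on cells seeded at 15% confluence in RPMI-1640, 5% FBS, 2 mM L-glutamine.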

HCC44 = assay: Cell viability dose-response, HCC44; conditions: Homo sapiens; for AC50: HCC44, Table 8, 12-point dose-response starting at 50 micromolar
Procedure: as §1, §2, §3

H2009 = assay: Cell viability dose-response, H2009; conditions: Homo sapiens; for IC50: NCI-H2009; for AC50: NCI-H2009, Table 8
Procedure: as §1, §2, §3

[1] = NCI-H2122, 12-point dose-response starting at 50 micromolar, 3-fold increments, in duplicate, read-out: toxicity data, H2122
[2] = HCC44, 12-point dose-response starting at 50 micromolar, 3-fold increments, in duplicate, read-out: toxicity data, HCC44
[3] = 12-point dose-response starting at 50 micromolar, 3-fold increments, in duplicate, read-out: toxicity data, H2009
[4] = NCI-H2122, Table 9, competitor, read-out: IC50 to H2122 cells
[5] = 12-point dose-response starting at 50 micromolar
[6] = HCC44, Tables 3 and 4, read-out: IC50 (uM) vs indicated non-small cell lung cancer cell line HCC44
[7] = Tables 3 and 4, read-out: IC50 (uM) vs indicated non-small cell lung cancer cell line H2009
[8] = NCI-H2122, Tables 3 and 4, read-out: IC50 (uM) vs indicated non-small cell lung cancer cell line H2122

Structure (SMILES)	IC50 (H2122; [1]) [µM]	IC50 (HCC44; [2]) [µM]	IC50 (H2009; [3]) [µM]	AC50 (HCC44) [µM]	AC50 (H2009; [5]) [µM]	AC50 (H2122) [µM]	other results
COc1ccc(CCNC(=O)C(=O)Nc2ccc(Oc3ccc(Br)cc3)cc2)cc1 [SW209075-1]	0.029	–	–	–	–	–	IC50 (H2073): 8.07 µM
O=C(NCCc1ccc(O)cc1)NC(=O)c1ccc(Nc2ccccc2)cc1 [SW208562-1-A]	0.09	12.2	0.01	–	–	–	IC50 (H2122; [4]): 0.0737 µM
CNC(=O)c1ccc(C(=O)NC(=O)NCCc2ccc(OC)cc2)cc1 [SW208413-1-A]	≥ 49.5	≥ 49.5	16.3	–	–	–	–
O=c1c(Oc2ccccc2F)coc2cc(OCc3cn(-c4ccccc4)nn3)ccc12 [SW208232]	–	–	–	49.5	49.5	≥ 49.5	–
COc1ccc(CCNC(=O)NC(=O)c2ccc(-c3ccc(OC)cc3)cc2)cc1 [SW208387-1-A]	0.18	0.25	≥ 49.5	–	–	–	–
COc1ccc(CCNC(=O)NC(=O)c2ccc(C(=O)Nc3cccc(OC)c3)cc2)cc1 [SW208410-1-A]	≥ 49.5	≥ 49.5	1.37	–	–	–	–
COc1ccc(CCNC(=O)C(=O)Nc2ccc(COc3ccc(Br)cc3)cc2)cc1 [SW209050-1]	0.031	–	–	–	–	–	IC50 (H2073): 25.9 µM
Cn1c(NC(=O)c2ccc(C(=O)c3ccccc3)cc2)nc2ccccc21 [SW208770-1]	–	–	–	–	–	–	IC50 (HCC44; [6]): 12.7 µM; IC50 (H2009; [7]): 3.06 µM; IC50 (H2122; [8]): 31.4 µM
O=c1c(C2CC2)coc2cc(OCc3cnn(-c4ccccc4)c3)ccc12 [SW208766-1]	–	–	–	49.5	49.5	16.5	–
O=c1c(Oc2ccccc2)coc2cc(OCc3cnn(-c4ccccc4)c3)ccc12 [SW 208586-1]	–	–	–	0.15	49.5	0.11	–
O=c1c(-c2ccc(F)c(F)c2)coc2cc(OCc3cnn(-c4ccccc4)c3)ccc12 [SW208762-1]	–	–	–	49.5	43.2	0.18	–
O=c1c(C(O)c2ccccc2)coc2cc(OCc3cnn(-c4ccccc4)c3)ccc12 (stereo not drawn) [SW208833-1]	–	–	–	9.86	8.3	0.216	–
COc1ccc(CCNC(=O)c2ccc(Cl)cc2)cc1 [SW208463-1-A]	≥ 49.5	≥ 49.5	≥ 49.5	–	–	–	–
COc1ccc(Oc2coc3cc(OCc4cnn(-c5ccccc5)c4)ccc3c2=O)cc1 [SW 208596-1]	–	–	–	16.5	16.5	0.22	–
O=C(Nc1nc2ccc(OCCCBr)cc2s1)c1ccc(C(=O)c2ccccc2)cc1 [SW 208235]	–	–	–	–	–	–	IC50 (HCC44; [6]): 49.5 µM; IC50 (H2009; [7]): 49.5 µM; IC50 (H2122; [8]): ≥ 49.5 µM
Cc1ccccc1Oc1coc2cc(OCc3cnn(-c4ccccc4)c3)ccc2c1=O [SW 208593-1]	–	–	–	> 15	> 15	0.11	–
COc1ccc(C(=O)Nc2ccc(C(=O)c3ccccc3)cc2)cc1 [SW208465-1-A]	–	≥ 49.5	≥ 49.5	–	–	–	IC50 (H2122; NCI-H2122, read-out: toxicity data, H2122): ≥ 49.5 µM
COc1ccc(CCN(C)C(=O)N(C)C(=O)c2ccc(C(=O)c3ccccc3)cc2)cc1 [SW208567-1-A]	15.7	8	16.5	–	–	–	–
COc1ccc2nc(NC(=O)c3ccc(C(=O)c4ccccc4)cc3)sc2n1 [SW208233-1]	–	–	–	–	–	–	IC50 (HCC44; [6]): 49.5 µM; IC50 (H2009; [7]): 49.5 µM; IC50 (H2122; [8]): ≥ 49.5 µM
COc1ccc(CCNC(=O)NC(=O)c2ccc(-c3ccncc3)cc2)cc1 [SW208404-1-A]	21.8	≥ 49.5	≥ 49.5	–	–	–	–
O=C(Nc1nc2ccccc2s1)c1ccc(C(=O)c2ccccc2)cc1 [SW208652-1]	–	–	–	–	–	–	IC50 (HCC44; [6]): 0.025 µM; IC50 (H2009; [7]): 2.42 µM; IC50 (H2122; [4]): 0.00644 µM; IC50 (H2122; [8]): 0.009 µM
COc1ccc(CCNC(=O)NC(=O)c2ccc(C(=O)O)cc2)cc1 [SW208395-1-A]	≥ 49.5	≥ 49.5	≥ 49.5	–	–	–	–
COc1ccc(CCNC(=O)NC(=O)c2cccc(-c3ccc(OC)cc3)c2)cc1 [SW208386-1-A]	≥ 49.5	≥ 49.5	13.1	–	–	–	–
